Experimental data: patent US20260159528A1, “HETEROCYCLIC COMPOUNDS AS TRIGGERING RECEPTOR EXPRESSED ON MYELOID CELLS 2 AGONISTS AND METHODS OF USE” (Vigil Neuroscience, Inc., priority 2021, published 2026)

What follows are compounds tested against T1, human TREM2 (Homo sapiens, UniProt Q9NZC2) (assay: TREM2 agonist potency by cellular Syk phosphorylation (AlphaLisa) in HEK293T-hTREM2 cells). Details: Table D-2; HEK293 cells expressing human TREM2 and DAP12; pSyk AlphaLisa.
T1 construct: expressed in transfected cells; host or cells: HEK293T
T1 sequence (Q9NZC2 19-230): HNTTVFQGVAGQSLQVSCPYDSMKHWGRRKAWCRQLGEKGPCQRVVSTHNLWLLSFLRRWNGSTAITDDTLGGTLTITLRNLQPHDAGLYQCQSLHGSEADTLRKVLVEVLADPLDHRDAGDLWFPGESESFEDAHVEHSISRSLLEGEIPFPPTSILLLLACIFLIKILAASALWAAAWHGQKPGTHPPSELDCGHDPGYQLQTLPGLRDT
T1 sequence (O43914 22-113 partner): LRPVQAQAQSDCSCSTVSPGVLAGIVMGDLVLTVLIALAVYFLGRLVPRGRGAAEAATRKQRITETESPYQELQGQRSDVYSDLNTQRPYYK
Type: cell-based
Experimental: In vitro Measurement of Triggering Receptor Expressed on Myeloid Cells 2 activity using cellular phosphorylation of Spleen Tyrosine Kinase (“Syk”) Assays
Measurement of TREM2 agonist potency was done using a HEK cell line expressing human TREM2 and DAP12 (HEK293T-hTREM2 cells). Binding of small molecules to, and activation of, TREM2 increases the phosphorylation of Syk. The resultant levels of Syk phosphorylation are measured using a commercial AlphaLisa reagent kit. To perform the assay, HEK-hTREM2 cells were plated at 14,000 cells per well in a 384 well plate, in 25 µL of complete growth media and incubated at 37° C., 5% CO2 for 20-24 hours.
Prior to the assay, test compounds were diluted in the 384 well plates in assay buffer and allowed to equilibrate for 30 minutes. Growth media was removed from cell plates by inversion on blotting paper, and 25 μL of test articles in assay buffer was added to cells. Cells were incubated for 45 minutes at room temperature. After 45 minutes, assay buffer was removed and 10 μL of lysis buffer was added. Plates were shaken for 20 minutes at 350 RPM at room temperature. After complete lysis, AlphaLisa reagents were added to the lysate, and fluorescence intensity was measured using a Perkin Elmer Envision plate reader. Intensities were used to generate a standard curve, and % activation was calculated. Curve fitting was performed using Prism v9 software, log(agonist) vs response—variable slope (four parameters), and EC50s were calculated from the curve fit.
The results presented in Table D have been generated with the in vitro assay described above. This assay may be used to test any of the compounds described herein to assess and characterize a compound's ability to act as an agonist of TREM2.

Row | EC50 [nM] | Compound
1 | ≤ 50 | C[C@@H]1CN(c2nc(-c3ccc(C(F)(F)F)cc3F)c3c(n2)nc(N(C)C)n3C)C[C@H](c2cnn(C3CC3)c2)O1 [Compound I-283, 2-((2S,6R)-2-(1-cyclopropyl-1H-pyrazol-4-yl)-6-methylmorpholino)-6-(2-fluoro-4-(trifluoromethyl)phenyl)-N,N,7-trimethyl-7H-purin-8-amine]
2 | 50 to 500 | Cn1c(N2CCC2)nc2nc([C@H]3CCO[C@@H](c4cnn(C5CC5)c4)C3)nc(-c3ccc(F)cc3F)c21 [Compound I-293, 8-(azetidin-1-yl)-2-((2R,4S)-2-(1-cyclopropyl-1H-pyrazol-4-yl)tetrahydro-2H-pyran-4-yl)-6-(2,4-difluorophenyl)-7-methyl-7H-purine]
3 | 50 to 500 | CN(c1nc2nc([C@H]3CCO[C@@H](c4cnn(C5CC5)c4)C3)nc(-c3ccc(F)cc3F)c2n1C)C1CC1 [Compound I-298]
4 | 50 to 500 | CN(C)c1nc2nc([C@H]3CCO[C@@H](c4cnn(C5CC5)c4)C3)nc(-c3ccc(F)cc3F)c2n1C [Compound I-303, 2-((2R,4S)-2-(1-cyclopropyl-1H-pyrazol-4-yl)tetrahydro-2H-pyran-4-yl)-6-(2,4-difluorophenyl)-N,N,7-trimethyl-7H-purin-8-amine]
